Each structure is given as a SMILES string. Entries after “also recorded” stand apart in the source; their conditions may differ. Read-outs that look alike come from different tables or passages of the source.

Experimental findings from US12268683B2, “Compounds and methods for synergistic activation of M channels” (THE REGENTS OF THE UNIVERSITY OF CALIFORNIA, priority 2018, dated 2025) are described below.

Common to all, as to assay type: cell-based
The target in one assay is KCNQ3* (KCNQ3-A315T) (Homo sapiens, UniProt O43525, A315T). In words: TEVC of homomeric KCNQ3* expressed in Xenopus oocytes. From the text:
(§1) cRNA transcripts encoding human KCNA1, KCNQ1, KCNQ2, KCNQ3, KCNQ4, or KCNQ5 were generated by in vitro transcription using the T7 polymerase message machine kit (Thermo Fisher Scientific), after vector linearization, from cDNA sub-cloned into plasmids incorporating X. laevis β-globin 5′ and 3′ UTRs flanking the coding region to enhance translation and cRNA stability. cRNA was quantified by spectrophotometry. Mutant cDNAs were generated by site-directed mutagenesis using a QuikChange kit according to manufacturer's protocol (Stratagene, San Diego, Calif.) and corresponding cRNAs prepared as above. Defolliculated stage V and VI X. laevis oocytes (Ecocyte Bioscience, Austin, Tex.) were injected with Kv channel a subunit cRNAs (10 ng total per oocyte). Oocytes were incubated at 16° C. in Barth's saline solution (Ecocyte) containing penicillin and streptomycin, with daily washing, for 3-5 days prior to two-electrode voltage-clamp (TEVC) recording.
(§2) TEVC recording was performed at room temperature with an OC-725C amplifier (Warner Instruments, Hamden, Conn.) and pClamp10.2 software (Molecular Devices, Sunnyvale, Calif.) 3-5 days after cRNA injection as described in the section above. Oocytes were placed in a small-volume oocyte bath (Warner) and viewed with a dissection microscope. Chemicals were sourced from Sigma. Bath solution was (in mM): 96 NaCl, 4 KCl, 1 MgCl2, 1 CaCl2. 10 HEPES (pH 7.6). […] MTX (DMSO), sorbic acid (ethanol), and glutaconic acid (molecular grade H2O) were stored at −20° C. as 1 M stocks. Oleamide was stored as a 1 mM stock in ethanol at 4° C. Palmitic acid was conjugated with bovine serum albumin as a 1 mM stock and stored at −20° C. All compounds were diluted to working concentrations each experimental day. All compounds were introduced to the recording bath via gravity perfusion at a constant flow of 1 ml/min for 3 min prior to recording. Pipettes were of 1-2 MΩ resistance when filled with 3 M KCl. Currents were recorded in response to pulses between −80 and +40 mV at 20 mV intervals, or a single pulse to +40 mV, from a holding potential of −80 mV, to yield current-voltage relationships, current magnitude, and for quantifying activation rate. TEVC data analysis was performed with Clampfit10.2 (Molecular Devices) and Graphpad Prism software (GraphPad, San Diego, Calif., USA); values are stated as mean±SEM. Normalized tail currents were plotted versus prepulse voltage and fitted with a single Boltzmann function:
(§3) cRNA transcripts encoding human KCNQ2, KCNQ3, KCNQ4, KCNQ5 (Kv7.2-Kv7.5) were generated by in vitro transcription using the T7 polymerase mMessage mMachine kit (Thermo Fisher Scientific), after vector linearization, from cDNA sub-cloned into plasmids incorporating Xenopus laevis β-globin 5′ and 3′ UTRs flanking the coding region to enhance translation and cRNA stability. cRNA was quantified by spectrophotometry. Mutant KCNQ2 and KCNQ3 cDNAs were generated with site-directed mutagenesis using a QuikChange kit according to the manufacturer's protocol (Stratagene, San Diego, Calif.) and corresponding cRNAs prepared as above. Defolliculated stage V and VI Xenopus laevis oocytes (Ecocyte Bioscience, Austin, Tex.) were injected with KCNQ channel α subunit cRNAs (5-10 ng). The oocytes were incubated at 16° C. in Barth's saline solution (Ecocyte) containing penicillin and streptomycin, with daily washing, for 2-5 days prior to two-electrode voltage-clamp (TEVC) recording.
(§4) TEVC recording was performed at room temperature using a OC-725C amplifier (Warner Instruments, Hamden, Conn.) and pClamp8 software (Molecular Devices, Sunnyvale, Calif.) 2-5 days after cRNA injection as described in the section above. The oocytes were placed in a small-volume oocyte bath (Warner) and viewed with a dissection microscope. Unless otherwise stated, chemicals were sourced from Sigma. Bath solution was (in mM): 96 NaCl, 4 KCl, 1 MgCl2, 1 CaCl2, 10 HEPES (pH 7.6).

A further assay addresses KCNQ2/3 (Homo sapiens, UniProt O43525+O43526). The assay can be described thus: TEVC of heteromeric KCNQ2/3 channels expressed in Xenopus laevis oocytes.
Excerpt: as §1
as §2, with “function: […]” for “function:”
cRNA transcripts encoding human KCNQ2, KCNQ3, KCNQ4, KCNQ5 (Kv7.2-Kv7.5) were generated by in vitro transcription using the T7 polymerase mMessage mMachine kit (Thermo Fisher Scientific), after vector linearization, from cDNA sub-cloned into plasmids incorporating Xenopus laevis β-globin 5′ and 3′ UTRs flanking the coding region to enhance translation and cRNA stability. cRNA was quantified by spectrophotometry. Mutant KCNQ2 and KCNQ3 cDNAs were generated with site-directed mutagenesis using a QuikChange kit according to the manufacturer's protocol (Stratagene, San Diego, Calif.) and corresponding cRNAs prepared as above.

In the next assay the target is KCNQ4 (Homo sapiens, UniProt P56696). In words: TEVC of homomeric KCNQ4 expressed in Xenopus oocytes.
Excerpt: as §1, §2, §3, §4

The next assay has as its target KCNQ2 (Homo sapiens, UniProt O43526). The assay can be described thus: TEVC of homomeric KCNQ2 expressed in Xenopus oocytes.
Excerpt: as §1, §2, §3, §4

A further assay deals with KCNQ5 (Homo sapiens, UniProt Q9NR82). The assay can be described thus: TEVC of homomeric KCNQ5 expressed in Xenopus oocytes.
Excerpt: as §1, §2, §3, §4

Turning to `CC(=O)c1c(O)c(C)c(O)c(Cc2c(O)c3c(c(C(=O)/C=C/c4ccccc4)c2O)OC(C)(C)C=C3)c1O` [MTX, mallotoxin], the “shift of midpoint voltage of KCNQ3* activation” value on KCNQ3* (KCNQ3-A315T) (MTX 30 μM) is −9 mV. The EC50 at KCNQ3* (KCNQ3-A315T) (−60 mV, read-out: EC50 of KCNQ3* activation) came to 13 µM; at KCNQ2/3 (current at −60 mV, read-out: EC50 of KCNQ2/3 activation) it was 11.5 µM; on KCNQ4 (−60 mV, read-out: EC50 of KCNQ4 activation) it was 20.2 µM; at KCNQ2 (−60 mV, read-out: EC50 of KCNQ2 activation) it was 6.4 µM; on KCNQ5 (−60 mV, read-out: EC50 of KCNQ5 activation) it was 67.1 µM. The “effect on KCNQ2/3 gating kinetics” value on KCNQ2/3 is “speeded KCNQ2/3 activation and slowed deactivation”. On KCNQ2/3 (1 μM alone), the “effect on KCNQ2/3 at low dose” value is recorded as “negligible effects”. Further, the “effect on voltage dependence of KCNQ2/3 activation, screen of M. oppositifolius leaf compounds” value at KCNQ2/3 (100 μM, MTX and palmitic acid 30 μM) is “negative-shifted”. For the same compound, at KCNQ2/3 (+40 mV), the “effect on KCNQ2/3 at +40 mV” value is listed as “little effect”. Moreover, on KCNQ2/3 (MTX 30 μM, 100 mM ion), the “relative ion permeability of KCNQ2/3 compared to K+” value is “increased relative permeability of KCNQ2/3 to Na^+ and Cs^+, and decreased permeability to Rb^+”. Moreover, the “shift of V0.5 of KCNQ2/3 activation (ΔV0.5)” value at KCNQ2/3 (RTG 10 μM, MTX 30 μM, IVA 500 μM, alone or in combination) was −17 mV. For the same compound, the “time to plateau of KCNQ2/3 activation on wash-in” value on KCNQ2/3 (−60 mV) came to 5 min. Moreover, the KCNQ2/3 current fold-increase result at KCNQ2/3 (−60 mV, 100 μM MTX) was “seven-fold”; on KCNQ2/3 (−60 mV, MTX 30 μM, IVA 500 μM alone or in combination) it was “fivefold”. At KCNQ4 (MTX 30 μM), the “shift of midpoint voltage of KCNQ4 activation” value was −17 mV. Besides, the “shift of midpoint voltage of KCNQ2 activation” value at KCNQ2 (MTX 30 μM) is reported as −24 mV. Moreover, the “shift of midpoint voltage of KCNQ5 activation” value on KCNQ5 (MTX 30 μM) is recorded as −14 mV. Further, the KCNQ5 current fold-increase entry at KCNQ5 (−60 mV, 100 μM) is reported as “eight-fold”.
Take `CCCCCCCCC/C=C/C=O` [(E)-2-dodecenal]: the “effect on KCNQ3* (in words)” value at KCNQ3* (KCNQ3-A315T) is given as “insensitive”. Besides, the “effect on KCNQ2/3 activity (in words)” value at KCNQ2/3 is listed as “activated KCNQ2/3”. Besides, the “shift in voltage dependence of KCNQ2/3 activation” value at KCNQ2/3 (100 nM) is on record as above 10 mV. For the same compound, the EC50 at KCNQ2/3 (wild-type KCNQ2/3, read-out: EC50 of KCNQ2/3 activation by (E)-2-dodecenal) amounted to 0.06 ± 0.02 µM; on KCNQ2 (read-out: EC50 of KCNQ2 activation by (E)-2-dodecenal), 0.06 ± 0.01 µM.
With `NCC(=O)O` [glycine, reference compound], at KCNQ3* (KCNQ3-A315T), the “effect on KCNQ3* (in words)” value is “no effects”. Besides, the “effect on KCNQ2/3 activity (in words)” value at KCNQ2/3 is given as “nor does it activate KCNQ2/3; also recorded: no effect”. For the same compound, the “effect on KCNQ4 (in words)” value on KCNQ4 was “unable to open”. For the same compound, the “effect on KCNQ2 (in words)” value on KCNQ2 was “unable to open”. For the same compound, on KCNQ5, the “effect on KCNQ5 (in words)” value is “no effects”.
In the case of `NCC1(CC(=O)O)CCCCC1` [gabapentin, reference compound], the “effect on KCNQ3* (in words)” value at KCNQ3* (KCNQ3-A315T) is listed as “activated”. Besides, the “maximal fold increase in KCNQ3 current” value on KCNQ3* (KCNQ3-A315T) (−60 mV) amounted to 4 fold. Moreover, the EC50 on KCNQ3* (KCNQ3-A315T) (−60 mV, read-out: EC50 of KCNQ3* activation by gabapentin) is 0.0053 µM; on KCNQ2/3 (current at −60 mV, read-out: EC50 for KCNQ2/3 activation), 0.0042 µM; on KCNQ5 (−60 mV, read-out: EC50 of KCNQ5 activation by gabapentin), 0.0019 µM. Besides, at KCNQ2/3, the “effect on KCNQ2/3 activity (in words)” value is on record as “potently activated”. The “effect on KCNQ2/3 gating kinetics” value at KCNQ2/3 is “speeded KCNQ2/3 activation and slowed deactivation”. The “potency on KCNQ2/3, fold more potent than GABA” value on KCNQ2/3 amounted to 200 fold. Also, the “shift in voltage dependence of KCNQ2/3 activation” value on KCNQ2/3 (1 μM gabapentin) was −9 mV. The “washout of effect on KCNQ2/3” value at KCNQ2/3 (after 2 minutes) is below 50%. Further, on KCNQ2/3 (unclamped oocytes), the “shift of membrane potential (EM) of KCNQ2/3-expressing oocytes” value was above −10 mV. Further, on KCNQ2/3 (−60 mV), the “time to plateau of KCNQ2/3 current augmentation on wash-in” value is around 2 min. Besides, on KCNQ2/3 (−60 mV, 10 nM), the KCNQ2/3 current fold-increase is 3.5 fold. On KCNQ4, the “effect on KCNQ4 (in words)” value is given as “insensitive”. Besides, the “effect on KCNQ2 (in words)” value at KCNQ2 is “insensitive”. Moreover, the “effect on KCNQ5 (in words)” value on KCNQ5 is recorded as “activated”. The “maximal fold increase in KCNQ5 current” value on KCNQ5 (−60 mV) is 3 fold.
On to `CS(=O)(=O)N(CC(=O)O)c1cccc(F)c1` [3FMSG], for which, on KCNQ3* (KCNQ3-A315T), the “relative Na+ permeability of KCNQ3* compared to K+” value is listed as “induces a similar increase in relative Na^+ permeability”. Further, the EC50 at KCNQ3* (KCNQ3-A315T) (Example 4, read-out: EC50, ΔV0.5act of KCNQ3*) stood at 0.018 ± 0.012 µM. Besides, the “effect on KCNQ2/3 gating kinetics” value on KCNQ2/3 was “speeded KCNQ2/3 activation and slowed its deactivation”. In addition, on KCNQ2/3 (100 μM, −60 mV), the “tau of KCNQ2/3 current decrease during washout” value was 39 ± 10 s and the “tau of KCNQ2/3 current increase during wash-in” value was 15 ± 3 s. For the same compound, the EC50 on KCNQ2/3 (Example 4, read-out: EC50, shift in voltage dependence of KCNQ2/3 activation (ΔV0.5act)) is 0.051 ± 0.021 µM. Besides, the “effect on KCNQ4 (in words)” value on KCNQ4 is “negligible effects”. On KCNQ2, the “effect of tenfold excess (100 μM) on KCNQ2 activation by 2FPG (10 μM)” value is “subtly reduced the efficacy” and the “effect on KCNQ2 (in words)” value is listed as “negligible effects”. Also, on KCNQ5 (Example 4, read-out: EC50 of KCNQ5 activation), the EC50 is 0.171 ± 0.112 µM.
